Laboratory results from patent publication US9796962B2, “Method for generating pancreatic hormone-producing cells” (Kyoto University, priority 2013, dated 2017).
Structures can show the parent of a compound that is named as a salt.

What was measured:
[1] = tested on: Human iPS cell line 201B7; experiment: Differentiation of 201B7 with sodium cromoglicate used solely or with single additives in step 3; format: cell-based
Description: Human iPS cell line 201B7 was used. The cells were differentiated into insulin producing cells by the following steps. The colonies of the iPS cell line was grown to approximately 80-90% confluence in the culture plate and dissociated from the plate by using CTK solution (Reprocell). The dissociated colonies were then divided into single cells using Accutase™ and seeded in 24 well plates (Greiner) at 2.0×10^5/well. The cells were cultured in RPMI medium containing 1% B-27 added with activin A (100 ng/ml), CHIR99021 (1 μM) and Y-27632 (10 μM) for 2 days. Then, the cells were further cultured in RPMI medium containing 1% B-27 added with activin A (100 ng/ml) and CHIR99021 (1 μM) for more 3 days (Day 5). During this period, the medium was changed with the same fresh medium on the third (Day 3) and the fourth days (Day 4). The cells obtained in Step 1 were cultured in improved MEM Zinc Option medium containing 1% B-27 added with dorsomorphin (1 μM), retinoic acid (2 μM), and SB431542 (10 μM) for 6 days (Day 11). During this period, the medium was changed with the same fresh medium every two days. The cells obtained in Step 2 were cultured in improved MEM Zinc Option medium containing 1% B-27 added with sodium cromoglicate (10 mM) for more 8 days (Day 19). During this period, the medium was changed with the same fresh medium every four days. The ratio of insulin expression versus β-Actin expression was determined by using quantitative PCR. […] Then, the effect of sodium cromoglicate when used in combination with each of the four additives used in EXAMPLE 4: forskolin (10 μM), nicotinamide (10 mM), dexamethasone (10 μM), and ALK5 inhibitor II (5 μM) was determined.

[2] = tested on: Human iPS cell line 201B7; experiment: Differentiation of 201B7 with 8 days step 3: marker gene PCR, immune staining, insulin amount; format: cell-based
Description: Human iPS cell line 201B7 was used. The cells were differentiated into insulin producing cells by the following steps. The colonies of the iPS cell line was grown to 80-90% confluence in the culture plate and dissociated from the dish by using CTK solution (Reprocell). The dissociated colonies were then divided into single cells using Accutase™ and seeded in 24 well plates (Greiner) at 2.0×10^5/well.
The cells were cultured in RPMI medium containing 1% B-27 added with activin A (100 ng/ml), CHIR99021 (1 μM) and Y-27632 (10 μM) for 2 days. Then, the cells were further cultured in RPMI medium containing 1% B-27 added with activin A (100 ng/ml) and CHIR99021 (1 μM) for more 3 days (Day 5). During this period, the medium was changed with the same fresh medium on the third (Day 3) and the fourth days (Day 4).
The cells obtained in Step 1 were cultured in improved MEM Zinc Option medium containing 1% B-27 added with dorsomorphin (1 μM), retinoic acid (2 μM), and SB431542 (10 μM) for 6 days (Day 11). During this period, the medium was changed with the same fresh medium every two days.
The cells obtained in Step 2 were cultured in improved MEM Zinc Option medium containing 1% B-27 added with forskolin (10 μM), nicotinamide (10 mM), dexamethasone (10 μM), ALK5 inhibitor II ((2-(3-(6-Methylpyridin-2-yl)-1H-pyrazol-4-yl)-1,5-naphthyridine)) (5 μM) and sodium cromoglicate (10 mM) for more 8 days (Day 19). During this period, the medium was changed with the same fresh medium every four days.
The cells at each step were collected, i.e. on Day 0, Day 5, Day 11 and Day 19, and the expressions of marker genes were determined by PCR (FIG. 5B). In the group where cells were cultured in the presence of sodium cromoglicate in step 3, the expression of NGN3 and GHRE (Ghrelin) were confirmed. The expression of SST (somatostatin) in the group where cells were cultured in the presence of sodium cromoglicate in step 3 was higher than that in the group where cells were cultured in the absence of sodium cromoglicate.
Further, the cells were subjected to immune staining and confirmed the production of proteins corresponding to the marker genes (FIG. 5C). The amount of insulin produced by the cells obtained by culturing the cells in the presence of sodium cromoglicate in step 3 and that produced by the cells obtained by culturing in the absence of sodium cromoglicate were compared, and the amount of insulin produced by the cells obtained with sodium cromoglicate was higher than that produced by the cells obtained without sodium cromoglicate (FIG. 5D).
The cells were subjected to immune staining and the production of pancreatic hormones was confirmed (FIGS. 6A and 6B).

[3] = tested on: iPS cell lines 418C1, 409B2 and 201B7; experiment: Differentiation of three iPS cell lines into insulin positive cells; format: cell-based, human; conditions: 10 mM in step 3 vs control; all three iPS cell lines; FIG. 2A
Source text: Three iPS cell lines, 418C1 and 409B2 (Okita K, et al, Nat Methods. 2011 8:409-412) and 201B7, all of which were generated from fibroblast cells, can be obtained from Center for iPS Cell Research and Application, Kyoto University. The iPS cell lines obtained from Kyoto University were differentiated into insulin positive cells by subjecting the cells to the same steps as those in Examples 1 and 2 with the exception that the concentration of sodium cromoglicate in the culture medium used in step 3 was 10 mM.

Human ES cell line KhES3 = experiment: Differentiation of human ES cell line KhES3 into insulin producing cells, flow cytometry; format: cell-based; conditions: step 3 with 4 factors plus 0.001-20 mM sodium cromoglicate, 12 days
Source text: Human ES cell line KhES3 was obtained from Kyoto University and maintained in the manner as shown in H. Suemori et al. (2006), Biochem. Biophys. Res. Commun., 345:926-932, the contents of this document is herein incorporated by reference. The cells of KhES3 were differentiated into insulin producing cells according to the steps shown below. The colonies of the human ES cell line grown to approximately 70% confluent in the culture plate were dissociated from the plate by using CTK solution (Reprocell). The dissociated colonies were then divided into single cells using Accutase™ and seeded in 24 well plates (Greiner) at 2.0×10^5/well. The cells were cultured in RPMI medium containing 2% FBS added with activin A (100 ng/ml) and CHIR99021 (3 μM) for 5 days. During this period, the medium was changed with the same fresh medium on the third and the fourth days. The cells obtained in Step 1 were cultured in improved MEM Zinc Option medium containing 1% B-27 (Invitrogen Corp.) comprising dorsomorphin (1 μM), retinoic acid (2 μM), and SB431542 (10 μM) for 6 days. During this period, the medium was changed with the same fresh medium every two days. […] The obtained cells were treated by using BD Cytofix/Cytoperm™ Kit and then, stained with polyclonal guinea-pig anti Swine insulin antibody/anti-serum (DAKO) and analyzed using flow cytometry to determine the number of insulin producing cells.

cell line 201B7 = experiment: Ki67 staining, ability of differentiated cells to proliferate; format: cell-based, human; conditions: 10 mM, 12 days in step 3, FIG. 3
Description: Cells from cell line 201B7 were subjected to steps 1 and 2 in the same manner as above and cultured for 12 days in step 3. The obtained cells were stained with Ki67 and the ability of the cells to proliferate was evaluated. […] In addition, the obtained cells were treated by using BD Cytofix/Cytoperm™ Kit and stained with monoclonal anti-glucagon clone K79bB10 (SIGMA). The cells were analyzed by flow cytometry to determine the number of the glucagon positive cells.

[4] = tested on: Pancreatic anlages from mice embryos E12.5, E14.5 and E16.5; experiment: Differentiation of fetal pancreatic anlages into insulin producing cells (insulin promoter GFP); format: cell-based; conditions: 10 mM with 4 factors
Description: Pancreatic anlages were obtained from mice embryos E12.5, E14.5 and E16.5 that express GFP on the downstream of the insulin promoter. Each pancreatic anlage was cultured in a suspension culture in Improved MEM Zinc Option medium containing 1% B-27 added with forskolin (10 μM), nicotinamide (10 mM), dexamethasone (10 μM), ALK5 inhibitor II (5 μM) and sodium cromoglicate (10 mM) for 4 days.
Further, expression of insulin and Neurog 3 in thus obtained cells were analyzed by PCR and confirmed that the expression of those genes was increased in the cells cultured with sodium cromoglicate (FIG. 7C).

[5] = tested on: Human iPS cell line 201B7; experiment: Differentiation of human iPS cell line 201B7 into insulin producing cells (step 3 with 4 factors), flow cytometry; format: cell-based
Description: Human iPS cell line 201B7 (this cell line can be obtained from Center for iPS Cell Research And Application, Kyoto University, Takahashi K et al, Cell. 2007 131:861-72., the contents of this document is incorporated herein by reference) was used. The iPS cells were differentiated into insulin producing cells by using the following steps. The colonies of the iPS cell line were grown to 70% confluent in the culture plate and dissociated from the plate by using CTK solution (Reprocell). The dissociated colonies were then divided into single cells using Accutase™ and seeded in 24 well plates (Greiner) at 2.0×10^5/well. The cells were cultured in RPMI medium containing 2% FBS added with activin A (100 ng/ml) and CHIR99021 (3 μM) for 5 days. During this period, the medium was changed with the same fresh medium on the third and the fourth days. The cells obtained in Step 1 were cultured in improved MEM Zinc Option medium containing 1% B-27 (Invitrogen Corp.) added with dorsomorphin (1 μM), retinoic acid (2 μM), and SB431542 (10 μM) for 6 days. During this period, the medium was changed with the same fresh medium every two days. The cells obtained in Step 2 were cultured in improved MEM Zinc Option medium containing 1% B-27 (Invitrogen Corp.) added with forskolin (10 μM), nicotinamide (10 mM), dexamethasone (10 μM), ALK5 inhibitor II ((2-(3-(6-methylpyridin-2-yl)-1H-pyrazol-4-yl)-1,5-naphthyridine)) (5 μM) and sodium cromoglicate (0.001 mM, 0.01 mM, 0.1 mM, 1 mM, 5 mM, 10 mM or 20 mM) for more 12 days. During this period, the medium was changed with the same fresh medium every four days. The obtained cells analyzed using flow cytometry to determine the number of insulin producing cells in the same manner as Example 1. The addition of 1 mM or more sodium cromoglicate in the culture medium increased the ratio of insulin positive cells and the maximum insulin positive cell-ratio was obtained when 10 mM sodium cromoglicate was added (FIG. 1A). Insulin production was confirmed by immune staining of the cells (FIG. 1B). Further, cells were stained with anti-human C-peptide antibody (Peninsula Laboratories LLC.) and analyzed by flow cytometry to see the production of C-peptide which is obtained by processing of pro-insulin. […] The highest ratio of the insulin positive cells was obtained by 12 days-culture in step 3. […] (FIG. 2B) Cells from cell line 201B7 were subjected to steps 1 and 2 in the same manner as above and cultured for 12 days in step 3. The obtained cells were stained with Ki67 and the ability of the cells to proliferate was evaluated. […] In addition, the obtained cells were treated by using BD Cytofix/Cytoperm™ Kit and stained with monoclonal anti-glucagon clone K79bB10 (SIGMA). The cells were analyzed by flow cytometry to determine the number of the glucagon positive cells.

[6] = PCR, 10 mM in step 3, 8 days, FIG. 5B
[7] = immune staining, Day 19, FIGS. 6A and 6B

O=C(O)c1cc(=O)c2c(OCC(O)COc3cccc4oc(C(=O)O)cc(=O)c34)cccc2o1 [sodium cromoglicate, sodium salt of 1,3-Bis(2-carboxychromon-5-yloxy)-2-hydroxypropane]
expression of insulin in combination with each single additive ([1]; combined with forskolin (10 μM), nicotinamide (10 mM), dexamethasone (10 μM) or ALK5 inhibitor II (5 μM)): confirmed in all 4 combinations, although the amount of the expression was not so high
effect on the agents' induction of insulin producing cells in combination ([1]; combined with forskolin, nicotinamide, dexamethasone or ALK5 inhibitor II): enhances the effects of all 4 agents
amount of insulin positive cells ([1]; immune staining, 10 mM alone in step 3, 8 days, FIG. 8C): higher
ratio of insulin expression versus β-Actin expression, presence vs absence ([1]; quantitative PCR, 10 mM alone in step 3, 8 days, FIG. 8B): higher
amount of insulin produced by the cells, presence vs absence ([2]; Day 19, 4Fs plus sodium cromoglicate vs 4Fs, FIG. 5D): higher
expression of GHRE (Ghrelin) [2, 6]: confirmed
expression of NGN3 [2, 6]: confirmed
expression of SST (somatostatin), presence vs absence [2, 6]: higher
expression of glucagon [2, 7]: increased
expression of insulin [2, 7]: increased
expression of somatostatin [2, 7]: increased
ratio of insulin positive cells [3]: ratio of insulin positive cells were increased
ratio of insulin positive cells (Human ES cell line KhES3): increased the ratio of insulin positive cells in a concentration dependent manner
number of Ki67 positive cells, presence vs absence (cell line 201B7): no substantial difference
ratio of GFP positive cells ([4]; suspension culture 4 days, E12.5, E14.5, E16.5, FIG. 7B): increased the ratio of GFP positive cells in each embryonic pancreatic anlage
expression of Neurog 3 ([4]; PCR, 4 days, FIG. 7C): increased
expression of insulin ([4]; PCR, 4 days, FIG. 7C): increased
ratio of insulin positive cells by culture period in step 3 ([5]; 10 mM, 8, 12 and 16 days in step 3, FIG. 2B): increased in the groups cultured for 8 days, 12 days and 16 days
effect on ratio of insulin positive cells, 4 days in step 3 ([5]; 10 mM, 4 days in step 3, FIG. 2B): also confirmed, although the efficiency was low
ratio of insulin positive cells ([5]; 10 mM, 12 days in step 3, FIG. 4): increased the ratio of both insulin positive cells and glucagon positive cells
ratio of glucagon positive cells ([5]; 10 mM, 12 days in step 3, anti-glucagon flow cytometry, FIG. 4): increased the ratio of both insulin positive cells and glucagon positive cells
culture period in step 3 giving the highest ratio of insulin positive cells ([5]; 10 mM, FIG. 2B): 12 days
production of C-peptide ([5]; anti-human C-peptide antibody, flow cytometry, FIG. 1C): increased by addition of sodium cromoglicate in a dose dependent manner
concentration giving the maximum insulin positive cell-ratio ([5]; step 3 12 days, FIG. 1A): 10 mM
concentration in the culture medium that increased the ratio of insulin positive cells ([5]; step 3 12 days, FIG. 1A): ≥ 1 mM
